Laboratory results reported in patent US7166622B2, “Substituted phenylsulfonamide inhibitors of beta amyloid production” (Wyeth, priority 2002, dated 2007).
Where “and” joins values, the source holds several entries; their conditions need not be identical. Equal values may be shown once. Read-outs that look alike come from different tables or passages of the source.

Key:
beta amyloid production = assay: Repressor Release Assay (RRA); type: cell-based; conditions: for fold induction at 10 µg/mL / fold induction at 20 µg/mL: read-out: APPI Fold Increase; for APPI % of Example #98: relative to Example 98
Procedure: CHO-K1 cells were cultured in whole DMEM media (DMEM—High Glucose with 10% fetal bovine serum, 1% Non-essential Amino Acids, and 1% Penicillin-Streptomycin) at 37° C. with 5% CO2. Two million cells were plated into 10-cm dishes 24 hrs prior to transfection.
Transient transfections were completed as recommended by Gibco BRL using their Lipofectamine Plus system. First, 6 μg of pRSVO-luc and 6 μg of APP-lacI construct DNA were added to 460 μL Opti-Mem transfection media and incubated with 30 μL Plus reagent for 15 minutes. Then, a lipid mixture of 40 μL Lipofectamine reagent and 460 μL Opti-Mem transfection media was incubated with the DNA-Plus reagent mixture for 15 minutes. During the DNA-lipid incubation, the CHO-K1 cells were washed once and covered in 5.0 mL DMEM media without Penicillin-Streptomycin. The DNA-lipid preparation was then layered onto these cells and incubated at 37° C. overnight.
[…] transfected cells per well (100 μL total volume) were plated into sterile, opaque Packard 96-well Culture-Plates in clear DMEM whole media (DMEM—without phenol red) and incubated at 37° C. with 5% CO2 for 3-5 hours.
Compounds were diluted using two different protocols; one protocol was used for compounds supplied neat (weighed powder in vial) and the other protocol was used for compounds supplied in solution (20 mM in DMSO in 96-well plates). For both protocols, 25 mM Hepes and 25 mM Hepes/1% DMSO were prepared fresh to be used as diluent. The Hepes/DMSO was used as the diluent control on all experimental plates.
The following table depicts the steps for compound dilution (please note that the last step was the addition of compound to cells/media in tissue culture plate).
Because some compounds were present in 96-well format at 20 mM, the following represents the protocol for their dilution (note that an average molecular weight of these compounds was used to calculate these dilutions and as above, the last step was the addition of compound to cells/media in tissue culture plate).
Once the compounds were diluted, they were applied in duplicate on cells in tissue culture plates (prepared above). Cells were incubated with compound at 37° C. with 5% CO2 for an additional 36-48 hours.
Luciferase assays (LucLite reagent, Packard) were performed and were read on a Packard TopCount instrument. Media was removed from each 96-well plate and replaced with 100 μL PBS per well (with Mg^2+ and Ca^2+). An equal volume (100 μL) of the LucLite lysis/substrate buffer was added to each well and the plates were sealed and mixed in the dark on a rotary shaker for 15-30 minutes at room temperature. Luciferase readings were then taken on the TopCount instrument. Measurements were expressed as relative light units (RLU) and are calculated and analyzed in MS Excel as follows: […]

CHO-K1 cells = assay: Toxicity in RRA (loss of luciferase signal); conditions: toxicity = loss of signal (<0.75 fold increase)
Procedure: The beta amyloid inhibitory activity of the compounds of the present invention was determined using the Repressor Release Assay (RRA).
“Fold Increase” refers to the amount of luciferase activity (measured in relative light units) over diluent control. “SEM” refers to the standard error of the mean for fold increase.

[1] = Conc 10 μg/ml, luciferase activity over diluent control
[2] = Conc 20 μg/ml, luciferase activity (RLU) over diluent control
[3] = Conc 20 μg/ml, 1=non-toxic, 0=toxic
[4] = Conc 20 μg/ml, luciferase activity over diluent control

Compound | fold induction at 10 µg/mL (beta amyloid production; [1]) | (%)APPI Toxicity (CHO-K1 cells; Conc 10 μg/ml) | other results
CC[C@H](C)[C@H](NS(=O)(=O)c1ccc(F)cc1)C(O)c1cccc2ccccc12 (stereo partly drawn) [Example 144, 4-fluoro-N-{(1S,2S)-1-[hydroxy(1-naphthyl)methyl]-2-methylbutyl}benzenesulfonamide] | 1.69 | 1 (1=non-toxic) | 
CCCCCC[C@H](CC)[C@@H](CO)NS(=O)(=O)c1ccc(Cl)cc1 [Example 88, 4-Chloro-N-[(1 S,2S)-2-ethyl-1-(hydroxymethyl)octyl]benzenesulfonamide] |  |  | fold induction at 20 µg/mL (beta amyloid production; [2]): 6.4; (%)APPI Toxicity (CHO-K1 cells; [3]): 1 (1=non-toxic)
C=C(C)C(O)(C(=C)C)[C@@H](NS(=O)(=O)c1ccc(Cl)cc1)[C@@H](C)CC [Example 230, 4-chloro-N-{(1S)-2-hydroxy-2-isopropenyl-3-methyl-1-[(1S)-1-methylpropyl]-3-butenyl}benzenesulfonamide] | 1.75 | 1 (1=non-toxic) | fold induction at 20 µg/mL (beta amyloid production; [4]): 1.9; (%)APPI Toxicity (CHO-K1 cells; Conc 20 μg/ml): 1 (1=non-toxic)
CC[C@H](C)[C@H](NS(=O)(=O)c1ccc(Cl)cc1)C(C)(C)O [Example 223, 4-chloro-N-[(1S,2S)-1-(1-hydroxy-1-methylethyl)-2-methylbutyl]benzenesulfonamide] | 2.33 | 1 (1=non-toxic) | 
CC[C@H](C)[C@H](NS(=O)(=O)c1ccc(Cl)cc1)C(O)(c1cccc2ccccc12)c1cccc2ccccc12 [Example 234, 4-chloro-N-((1S,2S)-1-{hydroxy[di(1-naphthyl)]methyl}-2-methylbutyl) benzenesulfonamide] |  | 1 (1=non-toxic) | APPI Fold Increase (beta amyloid production; [1]): 2.9 fold and 1.6 fold
C/C=C(\C)C(O)(/C(C)=C/C)[C@@H](NS(=O)(=O)c1ccc(F)cc1)[C@@H](C)CC (stereo partly drawn) [Example 245, 4-fluoro-N-{(1S,3E)-2-hydroxy-3-methyl-2-[(1E)-1-methyl-1-propenyl]-1-[(1S)-1-methylpropyl]-3-pentenyl}benzenesulfonamide] | 2.05 | 1 (1=non-toxic) | fold induction at 20 µg/mL (beta amyloid production; [4]): 3.5; (%)APPI Toxicity (CHO-K1 cells; Conc 20 μg/ml): 1 (1=non-toxic)
CC[C@H](C)[C@H](NS(=O)(=O)c1ccc(F)cc1)C(O)c1ccc(Cl)cc1 (stereo partly drawn) [Example 136, N-{(1S,2S)-1-[(4-chlorophenyl)(hydroxy)methyl]-2-methylbutyl}-4-fluorobenzenesulfonamide] | 3.04 | 1 (1=non-toxic) | 
3-chloro-N-{(1S)-2-hydroxy-2-isopropenyl-3-methyl-1-[(18)-1-methylpropyl]-3-butenyl}benzenesulfonamide [Example 257] |  | 1 (1=non-toxic) | APPI Fold Increase (beta amyloid production; [1]): 2.54 fold; APPI % of Example #98 (beta amyloid production; Conc 10 μg/ml): 94.5%; APPI Fold Increase (beta amyloid production; [4]): 2.5 fold; APPI % of Example #98 (beta amyloid production; Conc 20 μg/ml): 68.8%; (%)APPI Toxicity (CHO-K1 cells; Conc 20 μg/ml): 1 (1=non-toxic)
CC[C@H](C)[C@H](NS(=O)(=O)c1cccc(Cl)c1)C(O)c1ccc(SC)cc1 (stereo partly drawn) [Example 201, 3-chloro-N-((1S,2S)-1-{hydroxy[4-(methylsulfanyl)phenyl]methyl}-2-methylbutyl)benzenesulfonamide] | 2.45 | 1 (1=non-toxic) | 
CCC[C@H](C)[C@@H](CO)NS(=O)(=O)c1ccc(Cl)cc1 [Example 54, 4-chloro-N-[(1S,2S)-1-(hydroxymethyl)-2-methylpentyl]benzenesulfonamide] |  |  | fold induction at 20 µg/mL (beta amyloid production; [2]): 5; (%)APPI Toxicity (CHO-K1 cells; [3]): 1 (1=non-toxic)
CC[C@H](C)[C@H](NS(=O)(=O)c1ccc(Cl)cc1)C(O)(CC)CC [Example 229, 4-chloro-N-{(1S)-2-ethyl-2-hydroxy-1-[(1S)-1-methylpropyl]butyl}benzenesulfonamide] | 1.52 | 1 (1=non-toxic) | 
